Reference: PMC12374030, “Hydroxyalkyne–Bithiophene Derivatives: Synthesis and Antileishmanial Activity” (Chemical Biology & Drug Design, 2025)
Values after ≈ are worked out from the molar mass of the structure shown.

Columns and labels:
[1] = tested on: L. amazonensis promastigotes; assay: Mitochondrial membrane potential (Rh123, flow cytometry); type: cell-based, Leishmania amazonensis; conditions: for Mitochondrial potential: Average (Median): 24 h, Rh123 fluorescence
Protocol: Promastigotes at 1 × 10^6 parasites mL^−1 treated with BT‐1 for 24 h were incubated with 5 μg mL^−1 Rh123, a fluorescent probe that accumulates in mitochondria, for 15 min (Menna‐Barreto, Corrêa, et al. [2009]; Menna‐Barreto, Goncalves, et al. [2009]). As a positive control, 100 μM CCCP was used. The data acquisition and analysis were performed using a FACSCalibur flow cytometer (BD Biosciences, Franklin Lakes, NJ, USA) equipped with CellQuest software. A total of 10,000 events were acquired in the region corresponding to the parasites.

J774A.1 macrophages = assay: Cytotoxicity assay in macrophages (MTT); type: cell-based; conditions: at 23.2 μM (IC50 against promastigotes)
[2] = tested on: L. amazonensis promastigote forms; assay: Antiproliferative assay (XTT); type: cell-based, Leishmania amazonensis
Protocol: L. amazonensis MHOM/BR/75/Josefa strain was originally isolated from a human case of CL by Dr. […]. Cuba at the University of Brasilia, Brazil (Saraiva et al. [1983]; Cuba et al. [1985]). […] The activity against promastigotes was evaluated by XTT (0.5 mg mL^-1), as previously described (Meshulam et al. [1995]). Absorbance was read in a microplate spectrophotometer (PowerWave XS; BioTek, Winooski, VT, USA) at 450 nm.

[3] = tested on: L. amazonensis promastigotes; assay: Lipid peroxidation assay (DPPP); type: cell-based, Leishmania amazonensis
Protocol: Promastigotes at 1 × 10^6 parasites mL^−1 treated with BT‐1 for 24 h were incubated with 50 μM DPPP for 15 min at 22°C. As a positive control, 50 μM H2O2 was used. The fluorescence was determined in a Victor X3 spectrofluorimeter (PerkinElmer, Waltham, MA, USA) at λex of 355 nm and λem of 460 nm. DPPP is essentially nonfluorescent until it is oxidized to a phosphine oxide (DPPP‐O) by peroxides (Okimoto et al. [2000]).

[4] = tested on: L. amazonensis promastigotes; assay: Cell membrane integrity (PI, flow cytometry); type: cell-based, Leishmania amazonensis
Protocol: Promastigotes at 1 × 10^6 parasites mL^−1 treated with BT‐1 for 24 h were incubated with 0.2 μg mL^−1 PI for 10 min. As a positive control, 40 μM digitonin was used. The data acquisition and analysis were performed using a FACSCalibur flow cytometer (BD Biosciences, Franklin Lakes, NJ, USA) equipped with CellQuest software. A total of 10,000 events were acquired in the region that corresponded to the parasites. Alterations in PI fluorescence were quantified as the percentage increase in fluorescence compared with the untreated parasites (Lazarin‐Bidóia et al. [2013]).

[5] = tested on: L. amazonensis promastigotes; assay: Lipid bodies accumulation (Nile red); type: cell-based, Leishmania amazonensis
Protocol: Promastigotes at 1 × 10^6 parasites mL^−1 treated with BT‐1 for 24 h were incubated with 10 μg mL^−1 Nile red, a lipophilic stain, for 30 min at 25°C. The fluorescence was measured in a Victor X3 spectrofluorimeter (PerkinElmer, Waltham, MA, USA) at λex of 485 nm and λem of 535 nm (Stefanello et al. [2014]).

[6] = tested on: L. amazonensis promastigotes; assay: Cell cycle (PI-RNAse A, flow cytometry); type: cell-based, Leishmania amazonensis; conditions: IC50, 24 h
Protocol: Promastigotes at 1 × 10^6 parasites mL^−1 treated with BT‐1 for 24 h were fixed in 70% cold methanol in PBS at 4°C for 2 h. Afterward, the parasites were washed in PBS, 10 μg mL^−1 PI‐RNAse A was added, and the samples were incubated at 37°C for 45 min. The data acquisition and analysis were performed using a FACSCalibur flow cytometer (BD Biosciences, Franklin Lakes, NJ, USA) equipped with CellQuest software. A total of 10,000 events were acquired in the region that corresponded to the parasites. As a positive control, 40 μM miltefosine was used. The percentages of cells in each stage of the cell cycle were determined based on the intensity of the PI fluorescence, which is directly proportional to the DNA content.

[7] = Cytotoxicity assay in macrophages (MTT); type: cell-based; conditions: mouse, J774A.1 macrophages, pH 7.2
Protocol: L. amazonensis MHOM/BR/75/Josefa strain was originally isolated from a human case of CL by Dr. Cesar A. Cuba at the University of Brasilia, Brazil (Saraiva et al. [1983]; Cuba et al. [1985]). Promastigote forms of this strain were maintained axenically in Warren's medium (brain–heart infusion plus hemin and folic acid; pH 7.2) supplemented with 10% heat‐inactivated FBS and maintained at 25°C. J774A.1 macrophages (obtained from the Cell Bank of Rio de Janeiro, RJ, Brazil) were maintained in RPMI‐1640 medium (pH 7.2), supplemented with sodium bicarbonate, L‐glutamine, 10% FBS, and streptomycin and penicillin at 37°C in a 5% CO2 atmosphere.
Cytotoxicity was evaluated in the J774A.1 macrophages. Macrophages (5 × 10^5 cells mL^−1) were cultured in 96‐well microplates containing RPMI‐1640 medium supplemented with 10% FBS. The plates were incubated at 37°C in a 5% CO2 atmosphere for confluent growth of the cells. After 24 h, the compounds were added to each well at increasing concentrations (31.25–1000 μM) and incubated for 48 h at 37°C in a 5% CO2 atmosphere. The cytotoxicity was evaluated by MTT (2 mg mL^−1), as previously described (Mosmann [1983]). Absorbance was read in a microplate spectrophotometer (PowerWave XS; BioTek, […], VT, USA) at 570 nm.

[8] = tested on: L. amazonensis promastigotes; assay: Cell size (FSC-H, flow cytometry); type: cell-based, Leishmania amazonensis; conditions: 2 × IC50, 24 h
Protocol: Promastigotes at 1 × 10^6 parasites mL^−1 treated with BT‐1 for 24 h were washed twice and resuspended in phosphate‐buffered saline (PBS), then analyzed using a FACSCalibur flow cytometer (BD Biosciences, Franklin Lakes, NJ, USA) equipped with CellQuest software. As a positive control, […] actinomycin D was used. A total of 10,000 events were acquired in the region that corresponded to the parasites. Histograms were generated for each sample, where the forward light scatter (FSC‐H) represents the cell volume (Lazarin‐Bidóia et al. [2013]).

[9] = tested on: L. amazonensis promastigote forms; assay: Morphological and ultrastructural changes (SEM, TEM); type: cell-based, Leishmania amazonensis; conditions: IC50 or 2 × IC50, 72 h
Protocol: After this, the parasites were fixed in a solution of 2.5% glutaraldehyde in 0.1 M cacodylate buffer for 24 h at 4°C. For scanning electron microscopy (SEM), the parasites were dehydrated in increasing concentrations of ethanol, critical point‐dried in CO2, sputter‐coated with gold, and observed in a Quanta 250 scanning electron microscope (FEI Company, Hillsboro, OR, USA). For transmission electron microscopy (TEM), the parasites were fixed as described for SEM. After this, the parasites were postfixed in a solution of 1% OsO4, 0.8% K4[Fe(CN)6], and 10 mM CaCl2 in 0.1 M cacodylate buffer. The samples were dehydrated in increasing concentrations of acetone and embedded in Poly/Bed 812 resin. Ultrathin sections were then obtained, contrasted with uranyl acetate and lead citrate, and observed in a JEM 1400 transmission electron microscope (JEOL Ltd., Tokyo, Japan).

[10] = tested on: L. amazonensis promastigotes; assay: Reactive oxygen species production (H2DCFDA); type: cell-based, Leishmania amazonensis
Protocol: Promastigotes at 1 × 10^6 parasites mL^−1 treated with BT‐1 for 24 h were incubated with 10 μM H2DCFDA in the dark for 45 min. As a positive control, 50 μM H2O2 was used. The fluorescence was determined by oxidation of H2DCFDA to the fluorescent product, 2′‐7ʹ dichlorofluorescein (DCF), which was measured in a Victor X3 spectrofluorimeter (PerkinElmer, Waltham, MA, USA) at λex of 488 nm and λem of 530 nm (Shukla et al. [2012]).

[11] = tested on: Leishmania amazonensis promastigote; set-up: method as in Takahashi et al. [2011]; conditions: previous work; ref Takahashi et al. [2011]; cited from earlier work
[12] = tested on: Leishmania amazonensis amastigote; set-up: method as in Takahashi et al. [2011]; conditions: previous work; ref Takahashi et al. [2011]; cited from earlier work

CCC(O)C#Cc1ccc(-c2ccc(C=O)s2)s1 (stereo not shown) [Compound 1]
Mitochondrial potential: Average (Median) ([1]; 23.2 μM (IC50)): 1841.42 | Mitochondrial potential: Average (Median) ([1]; 46.4 μM (2 × IC50)): 796.77 | reduction of mitochondrial potential compared with the untreated control ([1]; 2 × IC50, 24 h): 2.75 fold | toxicity to J774A.1 macrophages (J774A.1 macrophages): no toxicity | IC50 ([2]; Leishmania amazonensis, 72 h, 25°C, XTT, read-out: L. amazonensis (promastigotes) IC50): 23.2 ± 1.1 µM | Selectivity index (SI) ([2]; ratio between the CC50 (J774A.1 macrophages) and IC50 (promastigotes)): 9.33 | increase in lipoperoxidation vs untreated control ([3]; 2 × IC50, 24 h): 8.0 fold | increase in lipoperoxidation vs untreated control ([3]; IC50, 24 h): 3.0 fold | increase of PI-stained cells vs untreated control ([4]; 2 × IC50, 24 h): 11.13 fold | increase of PI-stained cells vs untreated control ([4]; IC50, 24 h): 3.48 fold | increase in lipid body accumulation vs untreated control ([5]; 2 × IC50, 24 h): 1.5 fold | increase in lipid body accumulation vs untreated control ([5]; IC50, 24 h): 1.4 fold | increase of cells in G0/G1 phase [6]: 1.3 fold | increase of cells in sub-G0/G1 phase [6]: 2.22 fold | CC50 at 48 h [7]: 216 ± 5.1 µM | decrease in cell size compared with the untreated control [8]: 1.45 fold | morphological alterations by SEM [9]: rounded shape and a reduction in cell body size, cell surface roughness, a shorter flagellum, and extravasation of cytoplasmic content | ultrastructural alterations by TEM [9]: presence of lipid bodies, loss of cell content, disorganization of the nucleus, a large amount of exocytic activity, and mitochondrial swelling | increase in the production of total ROS vs untreated control ([10]; 2 × IC50, 24 h): 9.0 fold | increase in the production of total ROS vs untreated control ([10]; IC50, 24 h): 3.0 fold

CC(=O)OCCC#Cc1ccc(-c2ccc(C)s2)s1 [I, 5′‐methyl‐(5‐[4‐acetoxy‐1‐butynyl])‐2,2′‐bithiophene]
IC50 promastigote [11]: 21.3 ± 4.4 µg/mL (≈ 73.3 µM) | IC50 amastigote [12]: 28.7 ± 2.6 µg/mL (≈ 98.8 µM)
